Data as given in PubChem BioAssay (NCI).
Where “and” joins values, the source holds several entries; their conditions need not be identical. Equal entries are not always repeated.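 Growth conditions: 96-well plates. Treatment: test compound, 48 hours, 5 concentrations. Analysis: linear interpolation between bracketing concentrations; unreached endpoints set to highest concentration. GI50: concentration for 50% inhibition of growth. The concentration for full growth arrest is given as TGI.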

Legend:
Test in all cases: DTP human tumour cell line panel, 48 h
SNB-19 CNS = system: SNB-19 CNS
HS 578T breast = system: HS 578T breast
M14 melanoma = system: M14 melanoma
CAKI-1 renal = system: CAKI-1 renal
RXF 393 renal = system: RXF 393 renal
HL-60(TB) leukemia = system: HL-60(TB) leukemia
SR leukemia = system: SR leukemia
A549 NSCLC = system: A549 NSCLC
OVCAR-8 ovarian = system: OVCAR-8 ovarian
RPMI-8226 leukemia = system: RPMI-8226 leukemia

SMILES	TGI (SNB-19 CNS)	TGI (HS 578T breast)	TGI (M14 melanoma)	TGI (CAKI-1 renal)	TGI (RXF 393 renal)	TGI (HL-60(TB) leukemia)	TGI (SR leukemia)	TGI (A549 NSCLC)	TGI (OVCAR-8 ovarian)	GI50 (SNB-19 CNS)	GI50 (HS 578T breast)	GI50 (M14 melanoma)	GI50 (CAKI-1 renal)	GI50 (HL-60(TB) leukemia)	GI50 (SR leukemia)	GI50 (A549 NSCLC)	GI50 (OVCAR-8 ovarian)	GI50 (RPMI-8226 leukemia)	TGI (RPMI-8226 leukemia)	GI50 (RXF 393 renal)
C=C(C)C1CC2(C)C(C)CC(O)CC2C(OC(=O)C=C(C)C)C1O (stereo unspecified)	> 100 µM	> 100 µM	> 100 µM	> 100 µM	> 100 µM	50.5 µM	51.9 µM	> 100 µM	> 100 µM	–	–	–	–	–	–	–	–	–	–	–
N[C@H](C(=O)O)[C@@H]1CC(Cl)=NO1	> 661 µM	> 1000 µM	> 1000 µM	160 µM	718 µM	–	> 583 µM	678 µM	502 µM	16.8 µM and 5.14 µM	7.42 µM	38.9 µM	23.9 µM	4.89 µM	3.44 µM	6.06 µM	22.2 µM	11.1 µM	811 µM	–
CCCCCCCCCCCCCCCCCCOC[C@H](COP(=O)(O)O[C@H]1[C@H](O)[C@@H](O)[C@H](O)C[C@H]1O)OC	–	> 100 µM and 34.8 µM	> 100 µM and 24.7 µM	> 100 µM and 25.1 µM	> 100 µM and 21.1 µM	> 100 µM and 23.3 µM	45.9 µM and 40.8 µM	> 100 µM and 28.8 µM	> 100 µM and 31.8 µM	–	> 100 µM and 17.9 µM	> 100 µM and 12 µM	87.4 µM and 9.51 µM	35 µM and 9.09 µM	–	> 100 µM and 15 µM	> 100 µM and 16.9 µM	–	79.7 µM and 30.7 µM	35.4 µM and 5.76 µM
CN(C)C/C=C/C(=O)Nc1ccc(C(=O)N[C@@]2(C)CCC[C@@H](Nc3ncc(Cl)c(-c4c[nH]c5ccccc45)n3)C2)nc1	1.07 µM	0.0877 µM	0.0282 µM	1.11 µM	0.0344 µM	0.0665 µM	1.09 µM	–	1.19 µM	0.0163 µM	0.022 µM	< 0.01 µM	< 0.01 µM	0.0145 µM	< 0.01 µM	–	0.0154 µM	< 0.01 µM	0.0244 µM	0.0144 µM
CN(C)CCC(=O)N1C/C(=C\c2ccc(Cl)c(Cl)c2)C(=O)/C(=C/c2ccc(Cl)c(Cl)c2)C1	2.13 µM	1.73 µM	0.979 µM	0.984 µM	0.747 µM	0.162 µM	9.84 µM	2.05 µM	0.752 µM	–	–	–	–	–	–	–	–	–	0.485 µM	–
Nc1n[nH]c2cccc(C#Cc3cccc(NC(=O)c4cccc(C(F)(F)F)c4)c3)c12	18.5 µM	6.09 µM	10 µM	–	3.97 µM	4.55 µM	55 µM	18.6 µM	16.6 µM	6.13 µM	1.96 µM	1.88 µM	–	0.875 µM	3.95 µM	4.84 µM	4.82 µM	3.44 µM	21.5 µM	1.65 µM
COc1cc(C2c3cc4c(cc3OC(C)(N3CCCC3)C2C)OCO4)cc(OC)c1OC (stereo unspecified)	> 100 µM	0.721 µM	4.81 µM	> 20.2 µM	2.93 µM	0.685 µM	9.62 µM	> 100 µM	–	–	–	–	–	–	–	–	–	–	11.7 µM	–
CC/C=C\C[C@H]1CC=C2C(=O)C=C[C@@H]2CC=CCCCC(=O)O[C@@H](CCCCC)CC=C2C(=O)C=C[C@@H]2CC=CCCCC(=O)O[C@@H](CCCCC)CC=C2C(=O)C=C[C@@H]2CC=CCCCC(=O)O[C@@H](CCCCC)CC=C2C(=O)C=C[C@@H]2CC=CCCCC(=O)O1	> 7.9 µM	> 7.9 µM	7.46 µM	–	2.87 µM	6.26 µM	> 7.9 µM	> 7.9 µM	> 7.9 µM	2.83 µM	2.68 µM	2.09 µM	–	2.09 µM	1.58 µM	3.59 µM	2.29 µM	1.83 µM	5.83 µM	1.37 µM
